Each structure is given as a SMILES string.

This experiment has as its system A. fumigatus IDO mutants. The experiment can be described thus: growth inhibition test against A. fumigatus IDO mutants. Conditions: tested against A. fumigatus IDO mutants. The experiment is classed as cell-based. The text has this:
In addition to re-purposing duplicated primary metabolism genes to have a biosynthetic role, fungi also utilize duplicated genes from primary metabolism as a form of self-resistance (Refs. A34, A35; incorporated by reference in their entireties). This Type II repurposing represents a particularly attractive avenue for drug discovery, as the duplicated gene will often provide insight into the mechanism of action of the encoded secondary metabolite. Several examples of such Type II repurposing have been discovered by targeting clusters with duplicate resistance targets. The proteasome inhibitor fellutamide B, for example, was discovered due to the presence of a duplicated proteasome subunit within its BGC (36). Similarly, the BGC encoding the methionine aminopeptidase inhibitor fumagillin contains both type I and type II methionine aminopeptidase genes in the gene cluster (FIG. 10) (Ref. A37; incorporated by reference in its entirety). While it is likely that many of the IDOs contained within the BGCs depicted in FIGS. 8 and 9 represent Type I biosynthetic enzymes that provide kynurenine for secondary metabolite synthesis, it is also possible that they represent Type II duplicated gene targets that serve to protect the producing organism against the biosynthetic product. […]

Turning to `Nc1ccccc1C(=O)NC1CC(=O)c2ccccc2NC1=O` (stereo not shown) [terreazepine, 2-amino-N-(2,3,4,5-tetrahydro-2,5-dioxo-1H-1-benzazepin-3-yl)benzamide], the growth inhibitory activity entry was “no growth inhibitory activity was observed”.

Source of the values: patent US20230035690A1, “MACHINE LEARNING TOOLS AND A PROCESS TO DISCOVER NEW NATURAL PRODUCTS BY LINKING GENOMES AND M[…] FUNGI” (Northwestern University, priority 2019, published 2023).
